This note sets out measurements from patent publication US4443536A, “Nondiffusible photographic couplers and photographic elements and processes employing same” (Eastman Kodak Company, priority 1982, dated 1984).

Where “and” joins values, the source holds several entries; their conditions need not be identical. Equal entries are not always repeated.

This data set is described as follows: Dye hue from spectrophotometric curves: λ-max, half band width, curve shape factor. The note with it: for CSF (curve shape factor, 100 X TBW/HBW) / HBW (half band width) / λ-max (maximum absorption peak of dye): Table I; for CSF / HBW / λ-max: Table II. The protocol: Photographic elements containing couplers of this invention and control couplers were prepared and tested according to the procedures described below.
The photosensitive layer was overcoated with a layer containing gelatin at 1.08 g/m^2 and bis-vinyl-sulfonylmethyl ether at 1.75 weight percent based on total gelatin.
Samples of each element were imagewise exposed through a graduated-density test object and processed at 40° C. employing one of three color developing solutions identified below then stopped, bleached, fixed and washed.
In each element, well-defined, dye images were produced which were evaluated by plotting dye density vs. log exposure sensitometric curves and recording the maximum dye density (Dmax) and gamma (γ) i.e., the contrast determined by the slope of the straight line portion of the curve. Additionally, dye hues were evaluated from spectrophotometric curves by measuring the maximum absorption peak (λmax) normalized to a density of 1.0 and the half band width (HBW). Halfband width is the width, in nanometers, of the spectrophotometric curve at one-half the difference between maximum density and stain. Similarly, the top-band width (TBW) and bottom-band width (BBW) of the curve were measured at three-fourths and one-fourth, respectively, of the normalized density. Curve shape factor (CSF) equals 100 X TBW/HBW and provides a ratio of the width near the top and bottom of the absorption curve. The greater this ratio, the steeper are the sides of the absorption peak, and the more efficient is the dye's absorption of light in its spectral region.
Photographic elements containing additional couplers of this invention were prepared, processed and evaluated as described above in connection with Examples 1-14.

[1] abbreviates: coupler solvent CS-1, developer D-1.
Where [2] appears, read: coupler solvent CS-2, developer D-2.
Where [3] appears, read: coupler solvent CS-2, developer D-3.
Where [4] appears, read: coupler solvent CS-3, developer D-2.
Where [5] appears, read: coupler solvent CS-3, developer D-1.
[6] abbreviates: coupler solvent CS-3, developer D-3.
Setting [7] is: coupler solvent CS-4, developer D-3.

Consider `CCCCCCCCCCCCCCCc1cccc(OC(CC)C(=O)NC2=NN(c3c(C)cc(C)cc3Cl)C(=O)C2)c1` (stereo not drawn) [CC-1, reference compound], for which, under setting [1], the “CSF (curve shape factor, 100 X TBW/HBW)” value was 43.3 and 43.6 and 43.1; the “HBW (half band width)” value is 94 nanometers; the “λ-max (maximum absorption peak of dye)” value is 531.

Regarding `CCCCCCCCCCCCC(Oc1ccc(O)c(C(C)(C)C)c1)C(=O)Nc1ccc(Cl)c(NC2=NN(c3c(Cl)cc(Cl)cc3Cl)C(=O)C2)c1` (stereo not drawn) [CC-2, reference compound], under setting [2], the “CSF (curve shape factor, 100 X TBW/HBW)” value was 46.3 and 39.5 and 39.9; the “HBW (half band width)” value is 81 nanometers and 79 nanometers and 78 nanometers; the “λ-max (maximum absorption peak of dye)” value was 539 and 540. Under setting [3], the “CSF (curve shape factor, 100 X TBW/HBW)” value amounted to 40.4; the “HBW (half band width)” value is 79 nanometers; the “λ-max (maximum absorption peak of dye)” value turned out to be 545.

For `CCC(C)(C)c1ccc(OCC(=O)Nc2cccc(C(=O)NC3=NN(c4c(Cl)cc(Cl)cc4Cl)C(=O)C3)c2)c(C(C)(C)CC)c1` [CC-3, reference compound], under setting [3], the “CSF (curve shape factor, 100 X TBW/HBW)” value was 45.3; the “HBW (half band width)” value was 88 nanometers; the “λ-max (maximum absorption peak of dye)” value stood at 556.

As to `CCc1c(Cl)cc(NC(=O)C(CC)Oc2ccc(C(C)(C)CC)cc2C(C)(C)CC)c(O)c1Cl` (stereo not drawn) [CC-4, reference compound], under setting [4], the “CSF (curve shape factor, 100 X TBW/HBW)” value is given as 45.2; the “HBW (half band width)” value turned out to be 141 nanometers; the “λ-max (maximum absorption peak of dye)” value is listed as 659.

On to `CCCCCCCCCCCCCCCCS(=O)(=O)Nc1ccc(Cl)c(NC(=O)C(Oc2ccc(S(=O)(=O)c3ccc(OCc4ccccc4)cc3)cc2)C(=O)C(C)(C)C)c1` (stereo not drawn) [CC-5, reference compound], for which, under setting [4], the “CSF (curve shape factor, 100 X TBW/HBW)” value stood at 43.5; the “HBW (half band width)” value is reported as 88 nanometers; the “λ-max (maximum absorption peak of dye)” value amounted to 446.

Consider `CCC(C)(C)c1ccc(OCCCC(=O)Nc2ccc(Cl)c(NC(=O)C(Oc3ccc(S(=O)(=O)c4ccc(OCc5ccccc5)cc4)cc3)C(=O)C(C)(C)C)c2)c(C(C)(C)CC)c1` (stereo not drawn) [CC-6, reference compound], for which, under setting [4], the “CSF (curve shape factor, 100 X TBW/HBW)” value is on record as 42.0; the “HBW (half band width)” value was determined as 85 nanometers; the “λ-max (maximum absorption peak of dye)” value worked out at 441.

As to `CCCCC(Oc1ccc(S(=O)(=O)c2ccc(OCc3ccccc3)cc2)cc1)C(=O)Nc1ccc(Cl)c(NC(=O)C(Oc2ccc(S(=O)(=O)c3ccc(O)cc3)cc2)C(=O)C(C)(C)C)c1` (stereo not drawn) [CC-7, reference compound], under setting [4], the “CSF (curve shape factor, 100 X TBW/HBW)” value amounted to 45.2; the “HBW (half band width)” value worked out at 85 nanometers; the “λ-max (maximum absorption peak of dye)” value was 445.

For `CCCCC(Oc1ccc(S(=O)(=O)c2ccc(OCc3ccccc3)cc2)cc1)C(=O)Nc1cccc(NC(=O)C(Oc2ccc(S(=O)(=O)c3ccc(O)cc3)cc2)C(=O)C(C)(C)C)c1` (stereo not drawn) [CC-8, reference compound], under setting [4], the “CSF (curve shape factor, 100 X TBW/HBW)” value came out at 44.3; the “HBW (half band width)” value is on record as 90 nanometers; the “λ-max (maximum absorption peak of dye)” value came to 439.

On to `CCCCCCCCCCC(Oc1ccc(S(=O)(=O)c2ccc(OCc3ccccc3)cc2)cc1)C(=O)Nc1ccc(Cl)c(NC(=O)C(Oc2ccc(S(=O)(=O)c3ccc(O)cc3)cc2)C(=O)C(C)(C)C)c1` (stereo not drawn) [CC-9, reference compound], for which, under setting [5], the “CSF (curve shape factor, 100 X TBW/HBW)” value turned out to be 43.8; the “HBW (half band width)” value came to 87 nanometers; the “λ-max (maximum absorption peak of dye)” value is given as 450.

On to `CCCCCCCCCCCCC(Oc1ccc(S(=O)(=O)c2ccc(O)cc2)cc1)C(=O)Nc1ccc(NC(=O)CCC)c(O)c1` (stereo not drawn) [Coupler C-2], for which, under setting [5], the CSF is 45.7%, the HBW stood at 144 nm and the λ-max was 655 nm.

Under setting [4], `CCCCCCCCCCCCC(Oc1ccc(S(=O)(=O)c2ccc(O)cc2)cc1)C(=O)Nc1ccc(NC(=O)C(F)(F)F)c(O)c1` (stereo not drawn) [Coupler C-3] yielded a CSF of 47.8%, an HBW of 161 nm and a λ-max of 659 nm.

Under setting [6], `CCCCCCCCCCC(Oc1ccc(S(=O)(=O)c2ccc(O)cc2)cc1)C(=O)Nc1cc(O)c(NC(=O)Nc2cccc(S(=O)(=O)NCCCC)c2)cc1OC` (stereo not drawn) [Coupler C-13] displayed a CSF of 44.4%, an HBW of 135 nm and a λ-max of 702 nm.

For `CCCCCCCCCCC(Oc1ccc(S(=O)(=O)c2ccc(O)cc2)cc1)C(=O)Nc1cc(Cl)c(CC)c(Cl)c1O` (stereo not drawn) [Coupler C-31], under setting [4], the “CSF (curve shape factor, 100 X TBW/HBW)” value amounted to 47.0; the “HBW (half band width)” value came to 160 nanometers; the “λ-max (maximum absorption peak of dye)” value was determined as 675.

As for `CCCCCCCCCCCCC(Oc1ccc(S(=O)(=O)c2ccc(O)cc2)cc1)C(=O)NC1=NN(c2c(Cl)cc(Cl)cc2Cl)C(=O)C1` (stereo not drawn) [Coupler M-3], under setting [1], the “CSF (curve shape factor, 100 X TBW/HBW)” value is given as 46.0; the “HBW (half band width)” value is given as 96 nanometers; the “λ-max (maximum absorption peak of dye)” value was determined as 546; the CSF turned out to be 45.7%. Also, under setting [1], the HBW was 96 nm and the λ-max is on record as 546 nm.

For the compound `CCCCCCCCCCC(Oc1ccc(S(=O)(=O)c2ccc(O)cc2)cc1)C(=O)Nc1ccc(CCCc2n[nH]c3cc(C)nn23)cc1` (stereo not drawn) [Coupler M-8], under setting [3], the “CSF (curve shape factor, 100 X TBW/HBW)” value worked out at 50.5; the “HBW (half band width)” value is 86 nanometers; the “λ-max (maximum absorption peak of dye)” value is listed as 550.

Under setting [7], `CCCCCCCCCCC(Oc1ccc(S(=O)(=O)c2ccc(O)cc2)cc1)C(=O)Nc1ccc(CCCc2n[nH]c3c(Cl)c(C)nn23)cc1` (stereo not drawn) [Coupler M-9] gave a CSF of 44.2%, an HBW of 90 nm and a λ-max of 558 nm.

As to `CCCCCCCCCCCCC(Oc1ccc(S(=O)(=O)c2ccc(O)cc2)cc1)C(=O)Nc1ccc(Cl)c(NC2=NN(c3c(Cl)cc(Cl)cc3Cl)C(=O)C2)c1` (stereo not drawn) [Coupler M-27], under setting [1], the “CSF (curve shape factor, 100 X TBW/HBW)” value came to 47.0; the “HBW (half band width)” value came to 91 nanometers; the “λ-max (maximum absorption peak of dye)” value came to 545.

Turning to `CCCCCCCCCCC(Oc1ccc(S(=O)(=O)c2ccc(O)cc2)cc1)C(=O)Nc1ccc(Cl)c(NC2=NN(c3c(Cl)cc(Cl)cc3Cl)C(=O)C2)c1` (stereo not drawn) [Coupler M-28], under setting [1], the “CSF (curve shape factor, 100 X TBW/HBW)” value was determined as 46.7; the “HBW (half band width)” value is given as 92 nanometers; the “λ-max (maximum absorption peak of dye)” value is given as 549. For the same compound, under setting [2], the “CSF (curve shape factor, 100 X TBW/HBW)” value worked out at 46.5; the “HBW (half band width)” value is listed as 93 nanometers; the “λ-max (maximum absorption peak of dye)” value was 541. For the same compound, under setting [3], the “CSF (curve shape factor, 100 X TBW/HBW)” value was 46.4; the “HBW (half band width)” value came to 94 nanometers; the “λ-max (maximum absorption peak of dye)” value came to 549; the CSF came out at 42.6%. Under setting [3], this compound returned an HBW of 94 nm and a λ-max of 549 nm.

Turning to `CCCCCCCCCCC(Oc1ccc(S(=O)(=O)c2ccc(O)cc2)cc1)C(=O)Nc1ccc(Cl)c(NC2=NN(c3c(Cl)cc(Cl)cc3Cl)C(=O)C2SCCCCCCC)c1` (stereo not drawn) [Coupler M-29], under setting [2], the “CSF (curve shape factor, 100 X TBW/HBW)” value amounted to 46.7; the “HBW (half band width)” value was 88 nanometers; the “λ-max (maximum absorption peak of dye)” value is reported as 540. Moreover, under setting [3], the “CSF (curve shape factor, 100 X TBW/HBW)” value is on record as 40.9; the “HBW (half band width)” value came to 90 nanometers; the “λ-max (maximum absorption peak of dye)” value amounted to 545.

As for `CCCCCCCCCCC(CN(C)S(=O)(=O)c1ccc(NC2=NN(c3c(Cl)cc(S(=O)(=O)N(C)C)cc3Cl)C(=O)C2)c(Cl)c1)Oc1ccc(S(=O)(=O)c2ccc(O)cc2)cc1` (stereo not drawn) [Coupler M-32], under setting [2], the “CSF (curve shape factor, 100 X TBW/HBW)” value is reported as 40.9; the “HBW (half band width)” value amounted to 82 nanometers; the “λ-max (maximum absorption peak of dye)” value is on record as 549.

For `CC(C)(C)C(=O)C(Oc1ccc(S(=O)(=O)c2ccc(OCc3ccccc3)cc2)cc1)C(=O)Nc1cc(NS(=O)(=O)c2ccc(O)cc2)ccc1Cl` (stereo not drawn) [Coupler Y-1], under setting [4], the “CSF (curve shape factor, 100 X TBW/HBW)” value was 43.7; the “HBW (half band width)” value was found to be 88 nanometers; the “λ-max (maximum absorption peak of dye)” value is on record as 449.

For the compound `CCCCC(Oc1ccc(S(=O)(=O)c2ccc(O)cc2)cc1)C(=O)Nc1ccc(Cl)c(NC(=O)C(Oc2ccc(S(=O)(=O)c3ccc(O)cc3)cc2)C(=O)C(C)(C)C)c1` (stereo not drawn) [Coupler Y-2], under setting [4], the “CSF (curve shape factor, 100 X TBW/HBW)” value turned out to be 44.4; the “HBW (half band width)” value came out at 90 nanometers; the “λ-max (maximum absorption peak of dye)” value amounted to 445.

Turning to `CCCCC(Oc1ccc(S(=O)(=O)c2ccc(O)cc2)cc1)C(=O)Nc1cccc(NC(=O)C(Oc2ccc(S(=O)(=O)c3ccc(O)cc3)cc2)C(=O)C(C)(C)C)c1` (stereo not drawn) [Coupler Y-3], under setting [4], the “CSF (curve shape factor, 100 X TBW/HBW)” value is 44.4; the “HBW (half band width)” value was found to be 93 nanometers; the “λ-max (maximum absorption peak of dye)” value is 441.

For the compound `CCCCCCCCCCC(Oc1ccc(S(=O)(=O)c2ccc(O)cc2)cc1)C(=O)Nc1ccc(Cl)c(NC(=O)C(Oc2ccc(S(=O)(=O)c3ccc(O)cc3)cc2)C(=O)C(C)(C)C)c1` (stereo not drawn) [Coupler Y-4], under setting [5], the “CSF (curve shape factor, 100 X TBW/HBW)” value came out at 44.6; the “HBW (half band width)” value stood at 90 nanometers; the “λ-max (maximum absorption peak of dye)” value is listed as 450.
